Active and inactive are the calls of the source. The rule behind the calls is not given here.
Columns and labels:
Rattus norvegicus [1] = assay: Inhibition of quipazine-induced head twitches in po dosed rat head twitch model administered 25 mins prior to quipazine challenge measured after 30 mins; format: functional
[2] = target: T1, Alpha-1B adrenergic receptor (Homo sapiens, UniProt P35368); assay: Inhibition of adrenergic alpha1B receptor (unknown origin)
T1 sequence (P35368 whole entry): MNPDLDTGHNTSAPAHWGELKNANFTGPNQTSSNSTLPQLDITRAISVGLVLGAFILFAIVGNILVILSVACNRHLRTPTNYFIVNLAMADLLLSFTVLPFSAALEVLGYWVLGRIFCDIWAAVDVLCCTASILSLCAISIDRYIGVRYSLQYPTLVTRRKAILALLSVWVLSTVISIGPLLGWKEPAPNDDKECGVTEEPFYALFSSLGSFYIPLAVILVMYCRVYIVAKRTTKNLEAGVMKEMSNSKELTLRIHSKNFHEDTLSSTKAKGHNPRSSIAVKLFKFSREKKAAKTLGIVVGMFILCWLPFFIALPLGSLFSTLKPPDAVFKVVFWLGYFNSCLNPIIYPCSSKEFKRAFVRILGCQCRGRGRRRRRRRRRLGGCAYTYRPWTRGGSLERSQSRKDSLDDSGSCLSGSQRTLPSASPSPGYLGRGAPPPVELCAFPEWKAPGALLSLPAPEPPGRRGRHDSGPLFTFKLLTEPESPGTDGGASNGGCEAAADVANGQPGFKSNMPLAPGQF

[3] = target: 5-hydroxytryptamine receptor 2A (Homo sapiens, UniProt P28223); assay: biochemical; format: cell-based, HEK293E
Description: Displacement of [125]DOI from human recombinant full length 5HT2A receptor expressed in HEK293E cells

[4] = Selectivity ratio of Ki for rat recombinant dopamine D2 short receptor to Ki for human recombinant full length 5HT2A receptor
D(2) dopamine receptor = D(2) dopamine receptor (Rattus norvegicus, UniProt P61169); assay: biochemical
Description: Displacement of [3H]-N-methylspiperone from rat recombinant dopamine D2 short receptor expressed in CHO cells

[5] = target: T2, 5-hydroxytryptamine receptor 2C (Homo sapiens, UniProt P28335); assay: biochemical
T2 sequence (P28335 whole entry): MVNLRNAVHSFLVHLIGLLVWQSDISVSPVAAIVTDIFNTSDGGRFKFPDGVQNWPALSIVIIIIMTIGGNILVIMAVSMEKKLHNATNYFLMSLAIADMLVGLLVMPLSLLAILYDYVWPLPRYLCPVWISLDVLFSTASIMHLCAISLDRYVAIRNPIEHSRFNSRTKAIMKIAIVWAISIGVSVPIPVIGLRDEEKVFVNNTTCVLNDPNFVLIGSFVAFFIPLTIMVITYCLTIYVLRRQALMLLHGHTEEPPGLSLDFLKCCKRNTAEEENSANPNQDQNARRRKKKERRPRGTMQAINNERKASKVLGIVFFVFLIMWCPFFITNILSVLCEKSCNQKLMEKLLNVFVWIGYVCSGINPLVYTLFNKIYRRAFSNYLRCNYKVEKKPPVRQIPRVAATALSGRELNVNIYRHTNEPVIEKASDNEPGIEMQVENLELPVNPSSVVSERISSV
Description: Displacement of [125]DOI from human recombinant full length 5HT2C receptor expressed in HEK293E cells

[6] = target: T3, Alpha-1A adrenergic receptor (Homo sapiens, UniProt P35348)
T3 sequence (P35348 whole entry): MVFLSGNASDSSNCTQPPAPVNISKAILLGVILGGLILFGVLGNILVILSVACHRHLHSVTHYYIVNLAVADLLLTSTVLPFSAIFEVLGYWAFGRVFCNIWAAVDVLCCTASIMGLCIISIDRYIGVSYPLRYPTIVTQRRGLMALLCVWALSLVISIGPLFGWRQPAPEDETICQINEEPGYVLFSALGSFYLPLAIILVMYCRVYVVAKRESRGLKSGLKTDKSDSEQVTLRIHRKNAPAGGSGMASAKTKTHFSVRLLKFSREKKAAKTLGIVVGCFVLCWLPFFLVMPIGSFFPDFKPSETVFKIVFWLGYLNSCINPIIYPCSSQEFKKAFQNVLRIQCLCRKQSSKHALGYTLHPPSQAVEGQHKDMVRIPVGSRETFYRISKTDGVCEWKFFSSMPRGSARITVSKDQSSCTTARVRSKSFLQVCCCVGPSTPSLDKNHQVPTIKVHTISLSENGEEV

D(4) dopamine receptor = target: T4, D(4) dopamine receptor (Homo sapiens, UniProt P21917)
T4 sequence (P21917 whole entry): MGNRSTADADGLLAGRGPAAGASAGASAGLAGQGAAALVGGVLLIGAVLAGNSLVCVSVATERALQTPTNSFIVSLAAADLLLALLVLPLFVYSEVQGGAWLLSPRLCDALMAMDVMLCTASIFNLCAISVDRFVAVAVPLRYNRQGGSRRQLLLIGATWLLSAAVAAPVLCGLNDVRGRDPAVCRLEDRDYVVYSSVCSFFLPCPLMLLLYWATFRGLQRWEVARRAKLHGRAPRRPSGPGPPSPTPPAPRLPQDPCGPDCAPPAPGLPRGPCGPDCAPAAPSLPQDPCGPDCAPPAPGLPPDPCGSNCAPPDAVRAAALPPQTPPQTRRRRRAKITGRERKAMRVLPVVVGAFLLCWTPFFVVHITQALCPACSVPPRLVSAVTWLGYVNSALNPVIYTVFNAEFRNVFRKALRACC
Description: Inhibition of human dopamine D4 receptor

[7] = target: T5, 5-hydroxytryptamine receptor 1A (Homo sapiens, UniProt P08908); assay: Inhibition of human 5HT1A receptor
T5 sequence (P08908 whole entry): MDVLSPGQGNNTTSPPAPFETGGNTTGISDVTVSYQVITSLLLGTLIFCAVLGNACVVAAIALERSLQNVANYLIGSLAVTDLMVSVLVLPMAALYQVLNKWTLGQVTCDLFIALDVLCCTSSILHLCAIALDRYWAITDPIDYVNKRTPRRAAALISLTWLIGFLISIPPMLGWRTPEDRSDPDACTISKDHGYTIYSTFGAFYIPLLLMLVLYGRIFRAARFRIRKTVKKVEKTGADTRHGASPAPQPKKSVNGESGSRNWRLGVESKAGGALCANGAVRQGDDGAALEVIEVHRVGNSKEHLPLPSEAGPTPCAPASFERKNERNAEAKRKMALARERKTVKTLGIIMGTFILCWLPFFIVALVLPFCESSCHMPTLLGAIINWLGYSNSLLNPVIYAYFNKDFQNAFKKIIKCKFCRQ

Rattus norvegicus [8] = assay: Toxicity in rat step-down latency model assessed as frank catalepsy at 30 mg/kg; format: organism-based; set-up: dose 30 mg/kg; details: in vivo
Rattus norvegicus [9] = assay: Inhibition of conditioned avoidance response in Sprague-Dawley rat model at 2 mg/kg, po after 2 hrs by electric foot shock test; format: functional, organism-based; set-up: dose 2 mg/kg
[10] = target: T6, D(4) dopamine receptor (Homo sapiens) (UniProt P21917); details: 100 nM
T6 sequence (whole entry): T4 sequence (P21917 whole entry)
Description: Inhibition of human dopamine D4 receptor at 100 nM

Rattus norvegicus [11] = assay: Inhibition of conditioned avoidance response in po dosed Sprague-Dawley rat model after 2 hrs by electric foot shock test; format: functional
[12] = target: D(2) dopamine receptor (Homo sapiens) (UniProt P14416); assay: Antagonist activity at human recombinant dopamine D2 short receptor expressed in CHO cells assessed as inhibition of Eu-GTP binding at 10 uM; format: cell-based
[13] = target: T7, Alpha-1B adrenergic receptor (Homo sapiens) (UniProt P35368); assay: Inhibition of adrenergic alpha1B receptor (unknown origin) at 100 nM
T7 sequence (whole entry): T1 sequence (P35368 whole entry)

[14] = Lipophilicity, log D of the compound at pH 1.7; format: physicochemical; details: buffer
[15] = target: T8, 5-hydroxytryptamine receptor 1A (Homo sapiens) (UniProt P08908); assay: Inhibition of human 5HT1A receptor at 100 nM
T8 sequence (whole entry): T5 sequence (P08908 whole entry)

Homo sapiens [16] = organism: Homo sapiens; assay: Antipsychotic activity in acute exacerbated schizophrenia patient; format: functional, organism-based
[17] = Lipophilicity, log D of the compound at pH 7.4; format: physicochemical; details: buffer
[18] = Plasma protein binding in human; format: ADME, cell-free; details: read-out: PPB (converted)
Rattus norvegicus [19] = assay: Toxicity in po dosed Sprague-Dawley rat assessed as effect on escape behaviour; format: organism-based; details: in vivo
MDR1 [20] = assay: in vitro; details: dog, MDCK-MDR1
Description: Efflux ratio of permeability from basolateral to apical side over apical to basolateral side indog MDCK cells expressing MDR1

MDR1 [21] = assay: Permeability from apical to basolateral side in MDCK cells transfected with MDR1; format: ADME, cell-based, Canis lupus familiaris; details: dog, read-out: permeability
Homo sapiens [22] = assay: Toxicity in healthy human administered once daily; format: organism-based; details: in vivo
Homo sapiens [23] = organism: Homo sapiens; assay: Effect on sleep maintenance insomnia patient assessed as increase in slow wave sleep
Histamine H1 receptor = Histamine H1 receptor (Homo sapiens, UniProt P35367)
Description: Inhibition of histamine H1 receptor (unknown origin)

[24] = target: T9, Alpha-1A adrenergic receptor (Homo sapiens) (UniProt P35348); assay: Inhibition of adrenergic alpha1A receptor (unknown origin) at 100 nM
T9 sequence (whole entry): T3 sequence (P35348 whole entry)

[25] = Solubility of the compound in PBS buffer at pH 7.4; format: physicochemical
Homo sapiens [26] = organism: Homo sapiens; assay: Effect on insomnia patient assessed as restoration of sleep architecture; format: functional, organism-based
[27] = target: D(2) dopamine receptor (Homo sapiens) (UniProt P14416); assay: Agonist activity at human recombinant dopamine D2 short receptor expressed in CHO cells up to 1 uM in absence of dopamine; format: cell-based
Homo sapiens [28] = assay: Toxicity in schizophrenia patient administered once daily; format: organism-based; details: in vivo
[29] = target: D(1A) dopamine receptor (Homo sapiens) (UniProt P21728); assay: Inhibition of human dopamine D1 receptor at 100 nM
Homo sapiens [30] = organism: Homo sapiens; assay: Effect on sleep maintenance insomnia patient assessed as reduction of waking after sleep onset
[31] = target: Sodium-dependent serotonin transporter (Homo sapiens, UniProt P31645); assay: Displacement of [3H]-N-methyl-citalopram from SERT in human platelets at 100 nM after 60 mins by liquid scintillation counting analysis
Chain of Sodium-dependent serotonin transporter (P31645 whole entry, looked up): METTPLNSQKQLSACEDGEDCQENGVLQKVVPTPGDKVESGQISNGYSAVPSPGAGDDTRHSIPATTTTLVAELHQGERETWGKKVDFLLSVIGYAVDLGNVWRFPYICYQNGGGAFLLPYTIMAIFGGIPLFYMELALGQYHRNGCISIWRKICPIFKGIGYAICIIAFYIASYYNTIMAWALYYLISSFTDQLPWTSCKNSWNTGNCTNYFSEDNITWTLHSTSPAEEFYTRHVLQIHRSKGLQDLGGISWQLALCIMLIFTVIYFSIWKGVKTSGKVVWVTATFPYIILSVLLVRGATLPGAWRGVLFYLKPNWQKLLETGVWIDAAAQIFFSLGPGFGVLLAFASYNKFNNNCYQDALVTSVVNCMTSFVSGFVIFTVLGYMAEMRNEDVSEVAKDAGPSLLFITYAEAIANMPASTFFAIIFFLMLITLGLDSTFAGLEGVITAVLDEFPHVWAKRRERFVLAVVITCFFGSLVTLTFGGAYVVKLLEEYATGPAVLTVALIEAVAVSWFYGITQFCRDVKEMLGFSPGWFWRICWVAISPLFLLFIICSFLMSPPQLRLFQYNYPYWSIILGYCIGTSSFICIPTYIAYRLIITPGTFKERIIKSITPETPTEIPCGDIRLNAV

Chain of D(2) dopamine receptor (P61169 whole entry): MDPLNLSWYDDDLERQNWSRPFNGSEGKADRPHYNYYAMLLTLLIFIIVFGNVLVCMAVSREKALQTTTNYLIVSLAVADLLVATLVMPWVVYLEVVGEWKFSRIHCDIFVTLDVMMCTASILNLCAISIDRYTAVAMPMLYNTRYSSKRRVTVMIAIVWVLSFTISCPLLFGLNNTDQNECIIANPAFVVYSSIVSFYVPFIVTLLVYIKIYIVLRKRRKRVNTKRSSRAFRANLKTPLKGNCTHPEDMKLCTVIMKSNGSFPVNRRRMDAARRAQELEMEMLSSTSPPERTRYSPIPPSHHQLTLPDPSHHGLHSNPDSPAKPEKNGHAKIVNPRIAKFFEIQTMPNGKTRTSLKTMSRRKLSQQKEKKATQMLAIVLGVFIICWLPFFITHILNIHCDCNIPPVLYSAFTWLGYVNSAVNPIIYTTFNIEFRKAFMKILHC
Chain of 5-hydroxytryptamine receptor 2A (P28223 whole entry): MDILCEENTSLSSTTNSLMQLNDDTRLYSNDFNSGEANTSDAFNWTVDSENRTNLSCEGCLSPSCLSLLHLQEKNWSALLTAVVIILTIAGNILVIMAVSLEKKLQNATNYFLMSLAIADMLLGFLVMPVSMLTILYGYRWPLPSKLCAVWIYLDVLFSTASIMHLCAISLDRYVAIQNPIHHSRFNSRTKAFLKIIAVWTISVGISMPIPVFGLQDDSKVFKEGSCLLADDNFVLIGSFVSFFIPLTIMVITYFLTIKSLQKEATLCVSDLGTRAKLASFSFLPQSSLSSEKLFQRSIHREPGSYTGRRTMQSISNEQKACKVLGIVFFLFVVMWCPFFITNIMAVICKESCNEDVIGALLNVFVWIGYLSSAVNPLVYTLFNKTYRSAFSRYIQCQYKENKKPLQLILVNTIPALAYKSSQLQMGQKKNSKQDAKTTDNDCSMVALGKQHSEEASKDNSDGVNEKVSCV
Chain of D(2) dopamine receptor (Homo sapiens) (P14416 whole entry): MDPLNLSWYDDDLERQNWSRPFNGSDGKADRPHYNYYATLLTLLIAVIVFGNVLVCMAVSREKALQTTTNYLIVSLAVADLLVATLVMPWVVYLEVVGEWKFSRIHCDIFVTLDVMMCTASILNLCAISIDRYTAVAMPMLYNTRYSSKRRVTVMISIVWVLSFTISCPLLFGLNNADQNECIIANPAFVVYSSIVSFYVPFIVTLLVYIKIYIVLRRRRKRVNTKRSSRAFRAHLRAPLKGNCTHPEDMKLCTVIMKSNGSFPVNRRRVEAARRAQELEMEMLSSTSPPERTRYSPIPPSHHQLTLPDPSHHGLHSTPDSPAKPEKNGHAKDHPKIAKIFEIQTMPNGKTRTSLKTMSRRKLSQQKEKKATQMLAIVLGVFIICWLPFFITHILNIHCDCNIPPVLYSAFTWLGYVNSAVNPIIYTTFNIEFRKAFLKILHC
Chain of D(1A) dopamine receptor (Homo sapiens) (P21728 whole entry): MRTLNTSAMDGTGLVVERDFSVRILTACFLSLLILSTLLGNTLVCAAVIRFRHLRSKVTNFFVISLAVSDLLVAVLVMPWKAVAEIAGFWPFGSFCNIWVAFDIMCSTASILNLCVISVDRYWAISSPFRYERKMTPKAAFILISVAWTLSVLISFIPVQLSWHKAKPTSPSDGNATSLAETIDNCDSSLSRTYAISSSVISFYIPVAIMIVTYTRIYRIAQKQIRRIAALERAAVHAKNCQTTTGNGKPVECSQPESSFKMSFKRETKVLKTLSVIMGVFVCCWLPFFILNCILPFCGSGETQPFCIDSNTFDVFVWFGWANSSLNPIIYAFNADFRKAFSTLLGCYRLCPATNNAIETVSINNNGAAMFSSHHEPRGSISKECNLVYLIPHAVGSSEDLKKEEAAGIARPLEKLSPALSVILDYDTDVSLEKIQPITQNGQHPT
Chain of Histamine H1 receptor (P35367 whole entry): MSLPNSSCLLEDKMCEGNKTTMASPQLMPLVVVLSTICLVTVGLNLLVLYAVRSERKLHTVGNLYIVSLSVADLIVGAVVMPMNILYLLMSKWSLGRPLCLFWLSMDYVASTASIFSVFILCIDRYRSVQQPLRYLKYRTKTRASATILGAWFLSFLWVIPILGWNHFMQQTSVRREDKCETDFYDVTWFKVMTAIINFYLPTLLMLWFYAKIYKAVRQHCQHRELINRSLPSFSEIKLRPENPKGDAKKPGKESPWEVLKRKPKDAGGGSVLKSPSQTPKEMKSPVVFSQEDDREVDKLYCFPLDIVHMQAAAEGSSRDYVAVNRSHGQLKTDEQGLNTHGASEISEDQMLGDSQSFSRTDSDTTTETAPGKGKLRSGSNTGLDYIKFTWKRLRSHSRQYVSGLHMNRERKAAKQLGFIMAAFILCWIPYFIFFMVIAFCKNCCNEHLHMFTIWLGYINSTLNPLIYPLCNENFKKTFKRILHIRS

## CN1CCN2c3c(cccc31)[C@@H]1CN(CCCc3noc4ccccc34)CC[C@@H]12
Rattus norvegicus [1]
  ED50: 1 mg/kg
[2]
  Ki: 294 nM
[3]
  Ki: 3.3 nM
[4]
  Ratio Ki: 53
D(2) dopamine receptor
  Ki: 174 nM
[5]
  Ki: 287 nM
[6]
  Ki: 314 nM

## O=C(CCCN1CC[C@H]2[C@@H](C1)c1cccc3c1N2CCO3)c1ccc(F)cc1
D(4) dopamine receptor
  Ki: 320 nM
Rattus norvegicus [1]
  ED50: 0.25 mg/kg
[2]
  Ki: 104 nM
[3]
  Ki: 0.89 nM
[4]
  Ratio Ki: 46
D(2) dopamine receptor
  Ki: 41 nM
[7]
  Ki: 1330 nM
[5]
  Ki: 520 nM
[6]
  Ki: 262 nM

## O=C(CCCN1CCC(O)(c2ccc(Cl)cc2)CC1)c1ccc(F)cc1 [HALOPERIDOL]
Rattus norvegicus [8]
  Activity: Toxic
Rattus norvegicus [9]
  Activity: Active

## CN1CCN2c3c(cccc31)[C@@H]1CN(CCCC(=O)c3ccc(F)cc3)CC[C@@H]12.Cc1ccc(S(=O)(=O)O)cc1 [LUMATEPERONE TOSYLATE]
[10]
  inhibition: > 50%
Rattus norvegicus [11]
  ED50: 1.5 mg/kg
D(4) dopamine receptor
  Ki: 108 nM
[12]
  inhibition: 100%
[13]
  inhibition: > 50%
[14]
  logD: 0.55
[15]
  inhibition: > 50%
Homo sapiens [16]
  Activity: Active
Rattus norvegicus [1]
  ED50: 0.12 mg/kg
[17]
  logD: 3.38
[18]
  fraction unbound: 0.026
Rattus norvegicus [19]
  Activity: Non-toxic
[2]
  Ki: 31 nM
MDR1 [20]
  efflux ratio: 1.3
Rattus norvegicus [8]
  Activity: Non-toxic
MDR1 [21]
  Papp A→B: 15.8 ×10⁻⁶ cm/s
Homo sapiens [22]
  Activity: Non-toxic
Homo sapiens [23]
  Activity: Active
Histamine H1 receptor
  Ki: > 1000 nM
[24]
  inhibition: > 50%
[25]
  solubility: 330 µg/mL
Homo sapiens [26]
  Activity: Active
[7]
  Ki: 1480 nM
[27]
  Activity: 0%
Homo sapiens [28]
  Activity: Non-toxic
[29]
  inhibition: > 50%
Homo sapiens [30]
  Activity: Active

## CN1CCN2c3c(cccc31)[C@@H]1CN(CCCC(=O)N3CCC(F)(F)CC3)CC[C@@H]12
[31]
  inhibition: 3%
[3]
  Ki: > 1000 nM
D(2) dopamine receptor
  Ki: > 1000 nM
[5]
  Ki: > 1000 nM
